Key:
Assay type in all cases: functional, cell-based
[1] = tested on: MCF7; assay: Antiproliferative activity against human MCF-7 breast cell line
[2] = tested on: DU-145; assay: Antiproliferative activity against human DU145 prostate cell line
[3] = tested on: HT-29; assay: Antiproliferative activity against human HT-29 colon cell line
[4] = tested on: SK-OV-3; assay: Antiproliferative activity against human SKOV-3 ovarian cell line

Row | IC50 [1] [nM] | IC50 [2] [nM] | IC50 [3] [nM] | IC50 [4] [nM] | SMILES
1 | 3800 | 2300 | > 10000 | 2400 | CN(C)CCNC(=O)c1cccc2cc3ccccc3nc12
2 | 370 | 13 | 22 | 720 | CCc1c2c(nc3ccc(O)cc13)-c1cc3c(c(=O)n1C2)COC(=O)[C@]3(O)CC [7-ETHYL-10-HYDROXYCAMPTOTHECIN]
3 | 100000 | 1300 | 200 | 4900 | COc1cc([C@@H]2c3cc4c(cc3[C@@H](O[C@@H]3O[C@@H]5CO[C@@H](C)O[C@H]5[C@H](O)[C@H]3O)[C@H]3COC(=O)[C@H]23)OCO4)cc(OC)c1O [ETOPOSIDE]
4 | 1000 | 560 | 890 | 450 | Cc1cnc(NCCCN(C)C)c2c1[nH]c1ccc3cc(O)ccc3c12 [INTOPLICINE]

— ChEMBL document CHEMBL1131967, “BN 80927: a novel homocamptothecin with inhibitory activities on both topoisomerase I and topoisomerase II” (Bioorg Med Chem Lett, 1999)
